Measurements reported in publication PMC7669869, “AdipoR1/AdipoR2 dual agonist recovers nonalcoholic steatohepatitis and related fibrosis via endoplasmic reticulum-mitochondria axis” (Nature Communications, 2020).
“And” between values parts separate entries of the source, which are not always exact repeats. Equal values may be shown once. Read-outs that look alike come from different tables or passages of the source. One block for each molecule: values may come before it. Non-standard residues stand in square brackets, D forms with d. Residues, ends and D or L forms follow the SMILES beside them. No end group written: not given here. Nva = CCC[C@H](N)C(=O)O

Experiments:
[1] = Pharmacokinetic assay in SD rats; assay type: in vivo, rat
Procedure: Male SpragueDawley (SD) rats were randomly divided into two groups (n = 3 per group) and received a single intravenous dose of JT003 (0.5 mg/kg) or ADP355 (1.0 mg kg^−1) respectively. Blood samples were collected at 5, 15, 30, 45 min and 1, 2, 3 h following the injection, and then were immediately centrifuged (4000g, 10 min, 4 °C) to obtain plasma samples. Plasma concentrations of the two peptides were measured by LC-MS/MS (ThermoFisher Scientific, USA). Pharmacokinetic parameters of JT003 and ADP355 were calculated using non-compartmental analysis in Phoenix WinNonlin (version 8.0, Pharsight, USA). The concentration values less than the LLOQ were set to zero for the analysis.

HepG2 cells = test: PA induced lipid accumulation, Oil Red O staining; assay type: cell-based, human; details: HepG2, 0.25 mM PA + 200 μM peptide, 24 h; in words
Procedure: Hepatoma carcinoma cell line HepG2 and human hepatic activated stellate cell line LX2 used in this study were purchased from Type Culture Collection of the Chinese Academy of Sciences (Shanghai, China). Cells were cultured in Dulbecco’s modified Eagle’s medium (DMEM) with 10% fetal bovine serum (FBS), supplemented with 1% penicillin–streptomycin (ThermoFisher Scientific, USA) at 37 °C in a humidified atmosphere of 5% CO2. In PA (Sigma, USA) induced lipid accumulation cell model, HepG2 cells were seeded into a 6-well plate at 5E5 cells per well. 0.25 mM PA and/or 200 μM candidate peptides were co-incubated with cells for 24 h. Then Oil Red O staining was performed to evaluate the accumulation of lipid droplets. BSA (Sigma, USA) was used in this experiment as the negative control. For LX2 cells, 2E5 cells were seeded, then the adherent cells were exposed to 200 μM candidate peptides for another 48 h. Next, the cell protein was obtained and western blotting was performed. Candidate peptides were diluted in DMEM in a stock concentration of 1 M.

[2] = test system: CCl4 induced liver fibrosis mice; test: CCl4 induced liver fibrosis mice: liver appearance, body weight, HE, Sirius red, IHC (αSMA, COL1α1, CD68); assay type: in vivo, mouse; details: CCl4 induced liver fibrosis mice; administration dosages of 0.5 mg kg−1 and 2 mg kg−1; in words
Procedure: Male mice liver fibrosis was induced by intraperitoneal injection of 20% CCl4 (Sigma, USA) diluted in corn oil (Aladdin, China) every 3 days for 6 weeks (n = 6; 5 ml kg^−1 body weight). Mice injected with equivalent volume of corn oil serves as control group (n = 6). Liver fibrosis mice treated with JT003 for 3 weeks were used to evaluated the pharmacological effects (n = 6; 500 μg kg^−1; daily intraperitoneal injection).
The levels of TG and HYP in liver tissue were detected with certain commercial assay kit (Nanjing Jiancheng Bioengineering Institute, China). Formalin-fixed liver tissues were embedded in paraffin, sectioned into 5 μm slices. After deparaffinization and rehydration of the section slices, they were stained with Haematoxylin and Eosin or Periodic Acid-Schiff. For the detection of liver collagen content, Sirius Red staining for collagen was performed. OCT-embedded frozen liver tissues were sectioned into 12 μm slices, and Oil Red O staining was performed. The cryostat-cut slices were stained with freshly prepared Oil Red O working solution for 7 min Two independent experimenters who were blinded to the treatment evaluated the staining slides and analyzed the score for steatosis, glucogen accumulation and collagen proliferation area.
Paraffin-embedded liver slices were deparaffinized and rehydrated, antigen retrieval was performed under the high pressure and temperature in 0.01 M sodium citrate buffer (pH = 6.0). To quench the endogenous peroxidase activity, the slices were then incubated with 1% hydrogen peroxide in methanol for 10 min in room temperature. Then slices were incubated with corresponding primary antibodies. After washing, HRP-conjugated secondary antibodies specific to the species of the primary antibodies were used. After the section were developed with DAB, hematoxylin staining was performed for cell counting.

[3] = test system: AdipoR1 and AdipoR2 on HepG2 and LX2 cells; test: Cell confocal imaging, receptor binding of FITC labeled peptide (with AdipoR siRNA); set-up: species or system human; details: 37 °C, 2 or 4 h, AdipoR1/AdipoR2 siRNA as control, in words
Procedure: For in vitro receptor binding assay, 4E4 HepG2 cells or 2E4 LX2 cells were seeded on 35 mm glass bottom dish with 150 μL complete medium. Then cells were incubated with FITC labeled peptide for 4 h. The nuclei were stained with Hoechst 33342 (ThermoFisher, Scientific, USA). After washing with PBS, cells were visualized in a laser confocal microscope (Olympus FV3000, Japan). Cells with suppressed AdipoR1 and AdipoR2 expression with each specific siRNA were used as negative control.
AdipoR1 and AdipoR2 siRNA as well as mock siRNA were chemically synthesized (GenePharma, China) and transfected into 60–70% confluent HepG2 and LX2 cells using Lipofectamine 3000 (ThermoFisher Scientific, USA). Dilution of siRNA and Lipofectamine 3000 reagents as well as the transfection of cells were performed following the manufacturer’s protocol. For HepG2 cell model, 5E5 cells were plated in 6-well plates and transfected with 5 μL of 20 μM stock siRNA. At 48 h following transfection, the cells were processed for 0.25 mM PA and/or 200 μM JT003 treated for another 24 h. BSA was used as the negative control. For LX2 cell model, 2E5 cells were plated in 6-well plates and transfected with 5 μL of 20 μM stock siRNA. At 48 h following transfection, the cells were processed for JT003 or PBS treated for another 48 h. Next, cells were harvested for either western blot or qPCR assay.

[4] = Serum stability assay (RP-HPLC); assay type: in vitro ADME; details: for Fraction of peptide remaining, Supplementary Figure 5: mouse serum, time 0 (unit not given); for remaining at 0.5 h, 5 mM: time 0.5 (unit inferred); for remaining at 1 h, 5 mM: time 1 (unit inferred); for remaining at 1.5 h, 5 mM: time 1.5 (unit inferred); for remaining at 2 h, 5 mM: time 2 (unit inferred); for remaining at 2.5 h, 5 mM: time 2.5 (unit inferred); for remaining at 4 h, 5 mM: time 4 (unit inferred); for remaining at 6 h, 5 mM: time 6 (unit inferred)
Procedure: The stability of candidate peptides was investigated following procedure. […] Ice-cold acetonitrile was added to terminate the reaction. Vortex and stand for 1 min, deionized water with 1% TFA was added to the mixture to further terminate the reaction. Mixtures were then centrifuged (13,000g, 10 min) to obtain the supernatant. RP-HPLC-MS was applied to analysis the content of candidate peptides. The serum stability of candidate peptides was represented as the retention rate of each peptide.

[5] = Sprague-Dawley, rat, male SD rats, single iv dose: JT003 0.5 mg/kg, ADP355 1.0 mg/kg, plasma, LC-MS/MS, non-compartmental, Mean ± SD, n = 3-6
[6] = mouse, replicate 1, read-out: Fraction of peptide remaining, Supplementary Figure 5
[7] = mouse, replicate 2, read-out: Fraction of peptide remaining, Supplementary Figure 5
[8] = mouse, replicate 3, read-out: Fraction of peptide remaining, Supplementary Figure 5

time for which plasma concentrations were measurable ([1]; SD rats, after intravenous administration, ADP355 1.0 mg/kg): 45 min
half-life ([1]; SD rats, iv, authors' response to reviewers): 6 min
AUC(0-inf) [1, 5]: 134 ± 19.9 ng·h/mL
AUC(0-t) [1, 5]: 134 ± 19.9 ng·h/mL
MRT [1, 5]: 5.4 ± 0.6 min
clearance [1, 5]: 126 mL/min/kg
Vd ([1]; Sprague-Dawley, rat, male SD rats, single iv dose: JT003 0.5 mg/kg, ADP355 1.0 mg/kg, plasma, LC-MS/MS, non-compartmental, Mean ± SD, n = 3-6, read-out: V): 1.06 ± 0.21 L/kg
t1/2 ([1]; male SD rats, single iv dose: JT003 0.5 mg/kg, ADP355 1.0 mg/kg, plasma, LC-MS/MS, non-compartmental, Mean ± SD, n = 3-6 (n = 3 per group)): 6 ± 0.6 min and 6 min
Molecule: CCC[C@H](NC(=O)[C@@H]1CCCN1C(=O)[C@@H](NC(=O)[C@H](N)CC(N)=O)[C@@H](C)CC)C(=O)N[C@@H](CC(C)C)C(=O)N[C@@H](Cc1ccc(O)cc1)C(=O)N[C@H](CO)C(=O)N[C@@H](Cc1ccccc1)C(=O)N[C@@H](C)C(=O)N[C@H](CO)C(N)=O [ADP355] (H-[dN]IP[Nva]LY[dS]FA[dS]-NH2; N-terminus and C-terminus assumed)
lipid droplets accumulation caused by PA (Oil Red O) (HepG2 cells): could be reduced
inflammation, necrosis and fibrosis area (HE and sirius red staining) [2]: not notably raised

Molecule: CCC[C@H](NC(=O)[C@@H]1CCCN1)C(=O)N[C@@H](CC(C)C)C(=O)N[C@@H](Cc1ccc(O)cc1)C(=O)N[C@@H](CO)C(=O)N[C@@H](Cc1ccccc1)C(=O)N[C@@H](CC(=O)O)C(N)=O [JT006] (H-P[Nva]LYSFD-NH2)
binding to AdipoRs on the cell membrane (confocal, FITC) [3]: could not bind to the AdipoRs specifically
lipid droplets accumulation caused by PA (Oil Red O) (HepG2 cells): little prevention of palmitic acid induced lipid droplets

Fraction of peptide remaining, Supplementary Figure 5 ([4]; replicate 1): 0.9901
Fraction of peptide remaining, Supplementary Figure 5 ([4]; replicate 2): 1.005
Fraction of peptide remaining, Supplementary Figure 5 ([4]; replicate 3): 0.9939
remaining at 0.5 h, 5 mM [4, 6]: 96.7%
remaining at 0.5 h, 5 mM [4, 7]: 98.6%
remaining at 0.5 h, 5 mM [4, 8]: 94.9%
remaining at 1 h, 5 mM [4, 6]: 82.5%
remaining at 1 h, 5 mM [4, 7]: 84%
remaining at 1 h, 5 mM [4, 8]: 83.1%
remaining at 1.5 h, 5 mM [4, 6]: 80.8%
remaining at 1.5 h, 5 mM [4, 7]: 82.6%
remaining at 1.5 h, 5 mM [4, 8]: 83.7%
remaining at 2 h, 5 mM [4, 6]: 50.5%
remaining at 2 h, 5 mM [4, 7]: 53.4%
remaining at 2 h, 5 mM [4, 8]: 47.2%
remaining at 2.5 h, 5 mM [4, 6]: 26.1%
remaining at 2.5 h, 5 mM [4, 7]: 27.2%
remaining at 2.5 h, 5 mM [4, 8]: 27.2%
remaining at 3 h, 5 mM ([4]; mouse, time 3 (unit inferred), replicate 1, read-out: Fraction of peptide remaining, Supplementary Figure 5): 29.9%
remaining at 3.5 h, 5 mM ([4]; mouse, time 3.5 (unit inferred), replicate 1, read-out: Fraction of peptide remaining, Supplementary Figure 5): 29.3%
remaining at 4 h, 5 mM [4, 6]: 23.9%
remaining at 4 h, 5 mM [4, 7]: 24.2%
remaining at 4 h, 5 mM [4, 8]: 23.5%
remaining at 6 h, 5 mM [4, 6]: 2.28%
remaining at 6 h, 5 mM [4, 7]: 2.13%
remaining at 6 h, 5 mM [4, 8]: 2.33%
Molecule: PGLYYFD-NH2 (C-terminus assumed) [Pep70]
